The structures appear in SMILES notation. “Also recorded” adds a separate entry of the source.

Here are results for one compound from patent US20230339878A1, “SLC26A3 INHIBITORS AND USE THEREOF” (THE REGENTS OF THE UNIVERSITY OF CALIFORNIA, priority 2018, published 2023).

One experiment deals with T1, slc26a3 (Mus musculus, UniProt Q9WVC8).
T1 construct: host or cells: Fischer rat thyroid (FRT) cells expressing YFP, clonal line FRT-YFP-slc26a3
T1 sequence (Q9WVC8 1-757): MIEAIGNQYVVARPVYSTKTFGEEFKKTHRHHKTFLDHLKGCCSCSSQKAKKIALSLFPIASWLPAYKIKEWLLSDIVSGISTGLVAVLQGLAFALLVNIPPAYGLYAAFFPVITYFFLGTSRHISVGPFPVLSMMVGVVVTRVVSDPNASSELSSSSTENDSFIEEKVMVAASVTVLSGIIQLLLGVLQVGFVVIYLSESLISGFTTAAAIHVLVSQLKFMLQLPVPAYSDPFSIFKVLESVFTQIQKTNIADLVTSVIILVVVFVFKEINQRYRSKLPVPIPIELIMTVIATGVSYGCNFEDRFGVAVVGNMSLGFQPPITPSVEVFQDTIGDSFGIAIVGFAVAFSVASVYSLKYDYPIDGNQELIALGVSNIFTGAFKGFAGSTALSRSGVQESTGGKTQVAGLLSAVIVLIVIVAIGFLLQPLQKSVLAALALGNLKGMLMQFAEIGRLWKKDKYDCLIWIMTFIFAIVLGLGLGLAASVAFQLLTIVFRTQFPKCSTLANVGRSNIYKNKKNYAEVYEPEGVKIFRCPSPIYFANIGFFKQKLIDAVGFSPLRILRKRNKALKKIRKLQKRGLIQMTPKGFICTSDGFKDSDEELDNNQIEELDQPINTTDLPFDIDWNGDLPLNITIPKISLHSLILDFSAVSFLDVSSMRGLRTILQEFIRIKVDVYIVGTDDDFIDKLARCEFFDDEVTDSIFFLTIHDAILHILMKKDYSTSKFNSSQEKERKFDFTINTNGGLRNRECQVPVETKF
Description: slc26a3-mediated Cl-/SCN- exchange. Format: cell-based, murine. Conditions: read-out: IC50 for inhibition of slc26a3-mediated Cl-/SCN- exchange. On the procedure: Concentration-dependence measurements for inhibition of slc26a3-mediated exchange of Cl^- and HCO3^-, the physiologically relevant activity of slc26a3, was measured using slc26a3-expressing FRT cells labeled with BCECF as a cytoplasmic pH sensor. Labeled cells were initially incubated in a Cl^--containing HCO3^- buffered solution, and HCO3^- influx / Cl^- efflux with cytoplasmic alkalinization was produced by addition of a gluconate-containing HCO3^- buffered solution. […] Concentration-dependence measurements for inhibition of slc26a3-mediated Cl^-/SCN^- exchange gave an IC50 of ~0.3 µM (FIG. 4B).

The target of the next experiment is T2, CFTR (Homo sapiens, UniProt P13569).
T2 construct: expressed in transfected cells; host or cells: FRT cells expressing YFP and CFTR
T2 sequence (P13569 whole entry, species assumed): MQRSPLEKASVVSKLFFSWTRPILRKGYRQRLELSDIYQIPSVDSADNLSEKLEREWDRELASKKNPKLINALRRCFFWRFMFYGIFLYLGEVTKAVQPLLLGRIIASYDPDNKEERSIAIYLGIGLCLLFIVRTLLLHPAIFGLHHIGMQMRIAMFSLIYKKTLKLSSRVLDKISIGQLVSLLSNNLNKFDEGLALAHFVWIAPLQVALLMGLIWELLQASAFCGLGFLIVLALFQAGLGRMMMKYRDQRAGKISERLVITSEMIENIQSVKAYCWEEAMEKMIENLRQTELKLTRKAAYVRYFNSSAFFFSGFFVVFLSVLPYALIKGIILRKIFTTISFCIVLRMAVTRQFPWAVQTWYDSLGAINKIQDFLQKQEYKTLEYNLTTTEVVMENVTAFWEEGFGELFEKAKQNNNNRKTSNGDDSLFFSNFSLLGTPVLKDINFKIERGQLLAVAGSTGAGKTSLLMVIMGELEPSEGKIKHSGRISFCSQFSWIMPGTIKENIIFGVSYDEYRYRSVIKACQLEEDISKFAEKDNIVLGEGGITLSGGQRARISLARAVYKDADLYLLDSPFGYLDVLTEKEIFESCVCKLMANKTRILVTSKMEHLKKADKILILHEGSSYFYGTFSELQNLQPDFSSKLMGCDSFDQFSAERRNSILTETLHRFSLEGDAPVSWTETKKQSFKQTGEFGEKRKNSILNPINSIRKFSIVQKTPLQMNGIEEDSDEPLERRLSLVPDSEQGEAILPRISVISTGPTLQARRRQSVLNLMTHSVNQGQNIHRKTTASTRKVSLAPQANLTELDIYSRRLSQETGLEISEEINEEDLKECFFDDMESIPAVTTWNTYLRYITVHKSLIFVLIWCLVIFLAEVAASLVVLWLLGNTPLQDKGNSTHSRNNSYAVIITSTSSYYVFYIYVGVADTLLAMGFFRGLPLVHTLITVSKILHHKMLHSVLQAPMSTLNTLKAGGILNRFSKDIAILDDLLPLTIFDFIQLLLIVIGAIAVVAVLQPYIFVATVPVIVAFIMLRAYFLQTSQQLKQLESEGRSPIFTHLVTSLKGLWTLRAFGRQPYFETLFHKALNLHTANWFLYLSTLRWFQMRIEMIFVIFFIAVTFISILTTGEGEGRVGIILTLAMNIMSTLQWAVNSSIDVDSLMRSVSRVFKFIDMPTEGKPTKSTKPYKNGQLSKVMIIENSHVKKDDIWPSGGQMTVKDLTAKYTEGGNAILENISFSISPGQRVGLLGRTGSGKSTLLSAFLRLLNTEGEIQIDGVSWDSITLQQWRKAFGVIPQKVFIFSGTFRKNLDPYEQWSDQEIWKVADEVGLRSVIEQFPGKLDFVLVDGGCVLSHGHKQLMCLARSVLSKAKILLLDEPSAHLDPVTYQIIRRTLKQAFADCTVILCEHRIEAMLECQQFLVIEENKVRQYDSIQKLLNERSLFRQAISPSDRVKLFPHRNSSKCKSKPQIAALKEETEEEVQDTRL
In words: Selectivity: CFTR (forskolin stimulated) YFP assay. In kind it is cell-based. To be noted: 10 µM. The source says: To investigate Compound A1 selectivity, transport assays were done on a panel of SLC26-family homologs, and other relevant epithelial ion transporters and channels. […] In separate studies, to investigate possible action of Compound A1 on multiple ion transporters and channels in a human epithelium, human bronchial epithelial (HBE) cells were studied by short-circuit current, with successive additions of amiloride (to block the epithelial sodium channel ENaC), forskolin, CFTRinh-172 (to block CFTR), and ATP (to activate the Ca^2+-activated chloride channel, CaCC) (FIG. 5C).
YFP-based assays of CFTR, pendrin and TMEM16A were as described. HEK cells transfected to express YFP and SLC26A3, slc26a6 or slc26a9 were functionally assayed using a Cl^-/I^- exchange protocol. Assays of Cl^-/HCO3^- exchange were done using BCECF as an intracellular pH indicator as described for pendrin. […]
HEK293 cells transfected with pIRES-YFP-slc26a9 were plated in 96-well black-walled, clear-bottom tissue culture plates (Corning Life Sciences, Tewksbury, MA) after coating with FNC Coating Mix (AthenaES, Baltimore, MD). […] Assays of slc26a9-mediated anion exchange were done by initially recording YFP fluorescence prior to addition of 100 µL of NaI-substituted PBS to test wells, with the initial rate of Cl^-/I^- exchange deduced from fluorescence intensity by single exponential regression. […]

In the case of `Cc1c(CC(=O)O)c(=O)oc2c(C)c(OCc3cccc(Br)c3)ccc12` [Compound A1], the IC50 at slc26a3 was approximately 300 nM. The “effect on activity of CFTR” value on CFTR is “did not alter the activity; also recorded: differences not significant”.
